{"source": "patent US7592357B2", "about": "“Compounds” (SmithKline Beecham Corporation, priority 2004, dated 2009)", "molecular_target": "T1, human recombinant ROCK1 kinase domain (amino acid 2-543) (Homo sapiens, UniProt Q13464)", "T1 construct": "ROCK1 kinase domain (amino acid 2-543); His-tag; made in house; host or cells: Sf9 cells", "T1 sequence (Q13464 2-543)": "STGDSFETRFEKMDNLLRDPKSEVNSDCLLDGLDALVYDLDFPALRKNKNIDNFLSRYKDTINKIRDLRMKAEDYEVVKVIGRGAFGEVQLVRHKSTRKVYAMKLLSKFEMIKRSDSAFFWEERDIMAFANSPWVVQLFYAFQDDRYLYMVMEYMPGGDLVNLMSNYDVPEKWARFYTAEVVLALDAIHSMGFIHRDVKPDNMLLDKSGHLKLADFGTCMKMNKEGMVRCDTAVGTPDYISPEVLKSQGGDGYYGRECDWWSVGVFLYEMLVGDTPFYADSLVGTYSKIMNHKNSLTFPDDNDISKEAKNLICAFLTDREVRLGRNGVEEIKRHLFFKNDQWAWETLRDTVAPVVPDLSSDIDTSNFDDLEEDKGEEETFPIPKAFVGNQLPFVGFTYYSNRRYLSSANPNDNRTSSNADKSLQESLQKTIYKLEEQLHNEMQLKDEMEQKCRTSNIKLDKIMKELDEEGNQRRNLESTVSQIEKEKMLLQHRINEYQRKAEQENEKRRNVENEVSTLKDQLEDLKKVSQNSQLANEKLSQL", "assay": "ROCK Kinase Assay", "assay_type": "biochemical", "details": "1 nM hROCK1, 1 uM ATP, SPA; results recorded as pIC50; range tested 50 uM to 0.8 nM or 10 uM to 0.8 nM", "description": "ROCK inhibitor activity was determined using human recombinant ROCK1 kinase domain (amino acid 2-543) expressed in Sf9 cells (see WO9967283). The enzyme was purified using His-tag NTA column and Source15 HPLC chromatography. The assay of Rock-1 activity involved incubation with peptide substrate and ATP^33, the subsequent incorporation of P^33 into the peptide was quantified by Scintillation Proximity Assay (SPA—Amersham Pharmacia).\nFor IC50 determination, test compounds were typically dissolved at 10 mM in 100% DMSO, with subsequent serial dilution in 100% DMSO. Compounds were typically assayed over an eleven point dilution range with a concentration in the assay of 50 uM to 0.8 nM, in 3-fold dilutions. IC50) values were calculated by bespoke curve fitting software and then converted to pIC50. In some cases, compounds were assayed over an eleven point dilution range with a concentration in the assay of 10 uM to 0.8 nM, in 3-fold dilutions. […]\nAssays were performed in opaque, white walled, 384 well plates, in a total assay volume of 20 ul. […] P^33 incorporation was quantified by scintillation counting in a Packard TopCount. When the reaction was terminated by addition of a 10 ul solution, P33 incorporation was quantified by luminescence detection using a PerkinElmer Viewlux ultraHTS microplate imager.", "data": [{"smiles": "COc1cccc(CN2C(=O)CC(c3ccc(C(F)(F)F)cc3)C(C(=O)Nc3cc4cn[nH]c4cc3F)=C2C)c1", "note": "(stereo not shown) [Example 104, N-(6-Fluoro-1H-indazol-5-yl)-2-methyl-1-{[3-(methyloxy)phenyl]methyl}-6-oxo-4-[4-(trifluoromethyl)phenyl]-1,4,5,6-tetrahydro-3-pyridinecarboxamide]", "values": [{"measurement": "activity in the ROCK kinase assay", "value": "not active"}]}]}
